Source: patent EP4793274A1, “SALT AND CRYSTAL FORM OF KIF18A INHIBITOR COMPOUND, PREPARATION METHOD THEREFOR AND USE THEREOF” (Hubei Bio-Pharmaceutical Industrial Technological Institute …, priority 2023, dated 2025)
Where a name gives a salt, the structure may show the parent alone.

Assays:
[1] = Dynamic solubility at 37 °C in H2O, SGF, FaSSIF and FeSSIF (HPLC concentration, pH of filtrate, XRPD of residual solid); format: physicochemical; conditions: listed as Crystal form A of maleate; for S: solubility: feeding concentration 10 mg/mL; for FC: crystal form change: XRPD of residual solid; for pH: pH of filtrate
Method: 0.82 mL of glacial acetic acid and 1.18 g of NaCl were added to a 100 mL volumetric flask and completely dissolved by addition of purified water.
The solubility of each sample in H2O, SGF, FaSSIF, and FeSSIF was determined at different time points (1 h, 2 h, 4 h, and 24 h). […] 137-156. […] Table C-2. Summary of dynamic solubility test results at 37 °C

[2] = Solid state stability (XRPD and HPLC purity); format: physicochemical
Description: 167-171. […] Table C-3. Summary of solid state stability evaluation

[3] = Solubility at room temperature in water, SGF and FaSSIF (HPLC concentration, pH of filtrate, XRPD of residual solid); conditions: listed as Crystal form A of maleate; for S: solubility: feeding concentration 1 mg/mL; for pH: pH of filtrate
Method: 100 mg of NaCl and 50 mg of Triton X-100 were weighed into a 50 mL volumetric flask and then completely dissolved by addition of purified water. 816 µL of 1 M hydrochloric acid was added, and the pH was adjusted to 1.8 with 1 M hydrochloric acid or 1 M NaOH solution. The mixed solution was brought to the volume by addition of purified water.
340 mg of anhydrous NaH2PO4 and 620 mg of NaCl were weighed into a 100 mL volumetric flask, and then completely dissolved by addition of purified water. 55.44 µL of a 50% NaOH solution was then added, and the pH was adjusted to 6.5 with 1 M hydrochloric acid or 1 M NaOH solution. The mixed solution was brought to the volume by addition of purified water. Subsequently, 110 mg of SIF powder was weighed into a 50 mL volumetric flask and completely dissolved in the solution described above, and the mixed solution was brought to the volume.
Solids at a feeding concentration of 1 mg/mL (calculated based on free crystal form) were rotationally mixed with corresponding vehicles at room temperature. […] After sampling at each time point, the samples were centrifuged (at 10000 rpm) and filtered (through a 0.22 µm PTFE filter head), the HPLC concentrations and pH values of the filtrates were determined, and the centrifuged solid samples were subjected to XRPD analysis.

[4] = Hygroscopicity by dynamic vapor sorption (DVS); format: physicochemical; conditions: 25 °C/80% RH
Method: Dynamic vapor sorption (DVS) curves were acquired on a DVS IntrInsic from Surface Measurement Systems (SMS). The relative humidity at 25 °C was corrected with the deliquescence points of LiCl, Mg(NO3)2, and KCl. Table A-5. DVS test parameters
The percentage changes in mass of the samples when the humidity changed (0% RH to 95% RH) at a constant temperature of 25 °C were collected. 157-166.

[5] = 80 °C/sealed, 1 day, listed as Crystal form A of maleate

For `Cc1cc(-c2cnn(-c3ccc(NS(=O)(=O)CCO)cc3N3CCC4(CC3)CC4)c2)nc(N2CCC(F)(F)CC2)n1` [crystal form A of the maleate], the “S: solubility” value ([1]; FaSSIF, 1 h, 60 min) was 62.7 µg/mL, the “S: solubility” value ([1]; FaSSIF, 2 h, 120 min) was 48.9 µg/mL and the “S: solubility” value ([1]; FaSSIF, 4 h, 240 min) was 39.7 µg/mL. The “S: solubility” value ([1]; FaSSIF, 24 h, 1440 min) was 25.3 µg/mL, the “S: solubility” value ([1]; FeSSIF, 1 h, 60 min) was 202.5 µg/mL and the “S: solubility” value ([1]; FeSSIF, 2 h, 120 min) was 182.4 µg/mL. The “S: solubility” value ([1]; FeSSIF, 4 h, 240 min) was 169.5 µg/mL, the “S: solubility” value ([1]; FeSSIF, 24 h, 1440 min) was 94 µg/mL and the “S: solubility” value ([1]; H2O, 1 h, 60 min) was 13.9 µg/mL. For the same molecule, the “S: solubility” value ([1]; H2O, 2 h, 120 min) was 9.8 µg/mL, the “S: solubility” value ([1]; H2O, 4 h, 240 min) was 5.2 µg/mL and the “S: solubility” value ([1]; H2O, 24 h, 1440 min) was 0.9 µg/mL. The “S: solubility” value ([1]; SGF, 1 h, 60 min) was 79.5 µg/mL, the “S: solubility” value ([1]; SGF, 2 h, 120 min) was 71.8 µg/mL and the “S: solubility” value ([1]; SGF, 4 h, 240 min) was 57.9 µg/mL. The “S: solubility” value ([1]; SGF, 24 h, 1440 min) was 11.1 µg/mL, the “FC: crystal form change” value ([1]; FaSSIF, 1 h) was “Yes” and the “FC: crystal form change” value ([1]; FaSSIF, 2 h) was “Yes”. For the same molecule, the “FC: crystal form change” value ([1]; FaSSIF, 4 h) was “Yes”, the “FC: crystal form change” value ([1]; FaSSIF, 24 h) was “Yes” and the “FC: crystal form change” value ([1]; FeSSIF, 1 h) was “Yes”. The “FC: crystal form change” value ([1]; FeSSIF, 2 h) was “Yes”, the “FC: crystal form change” value ([1]; FeSSIF, 4 h) was “Yes” and the “FC: crystal form change” value ([1]; FeSSIF, 24 h) was “Yes”. For the same molecule, the “FC: crystal form change” value ([1]; H2O, 1 h) was “Yes”, the “FC: crystal form change” value ([1]; H2O, 2 h) was “Yes” and the “FC: crystal form change” value ([1]; H2O, 4 h) was “Yes”. For the same molecule, the “FC: crystal form change” value ([1]; H2O, 24 h) was “Yes”, the “FC: crystal form change” value ([1]; SGF, 1 h) was “Yes” and the “FC: crystal form change” value ([1]; SGF, 2 h) was “Yes”. The “FC: crystal form change” value ([1]; SGF, 4 h) was “Yes”, the “FC: crystal form change” value ([1]; SGF, 24 h) was “Yes” and the pH ([1]; FaSSIF, 1 h) was 2.94. It also gave a pH ([1]; FaSSIF, 2 h) of 2.90, a pH ([1]; FaSSIF, 4 h) of 2.90 and a pH ([1]; FaSSIF, 24 h) of 2.90. For the same molecule, the pH ([1]; FeSSIF, 1 h) was 4.66, the pH ([1]; FeSSIF, 2 h) was 4.68 and the pH ([1]; FeSSIF, 4 h) was 4.67. The pH ([1]; FeSSIF, 24 h) was 4.70, the pH ([1]; H2O, 1 h) was 2.00 and the pH ([1]; H2O, 2 h) was 2.05. It also gave a pH ([1]; H2O, 4 h) of 1.98, a pH ([1]; H2O, 24 h) of 2.03 and a pH ([1]; SGF, 1 h) of 1.55. The pH ([1]; SGF, 2 h) was 1.57, the pH ([1]; SGF, 4 h) was 1.54 and the pH ([1]; SGF, 24 h) was 1.58. The “HPLC results Relative to starting (%)” value ([2]; 25 °C/60% RH/open, 1 week) was 100.0%, the “HPLC results Purity (area%)” value ([2]; 25 °C/60% RH/open, 1 week, listed as Crystal form A of maleate) was 98.26 area% and the “HPLC results Relative to starting (%)” value ([2]; 40 °C/75% RH/open, 1 week) was 100.0%. The “HPLC results Purity (area%)” value ([2]; 40 °C/75% RH/open, 1 week, listed as Crystal form A of maleate) was 98.30 area%, the “HPLC results Purity (area%)” value [2, 5] was 98.08 area% and the “HPLC results Relative to starting (%)” value [2, 5] was 99.8%. The “HPLC results Purity (area%)” value ([2]; Starting, listed as Crystal form A of maleate) was 98.29 area%, the Crystal form ([2]; XRPD after 25 °C/60% RH/open, 1 week, listed as Crystal form A of maleate) was “Crystal form A of maleate” and the Crystal form ([2]; XRPD after 40 °C/75% RH/open, 1 week, listed as Crystal form A of maleate) was “Crystal form A of maleate”. For the same molecule, the Crystal form ([2]; XRPD after 80 °C/sealed, 1 day, listed as Crystal form A of maleate) was “Crystal form A of maleate”, the “S: solubility” value ([3]; FaSSIF, 2 h, 120 min) was 126.8 µg/mL and the “S: solubility” value ([3]; FaSSIF, 24 h, 1440 min) was 47.9 µg/mL. The “S: solubility” value ([3]; H2O, 24 h, 1440 min) was 0.3 µg/mL, the “S: solubility” value ([3]; SGF, 2 h, 120 min) was 51.2 µg/mL and the “S: solubility” value ([3]; SGF, 24 h, 1440 min) was 36.6 µg/mL. The pH ([3]; FaSSIF, 2 h) was 6.4, the pH ([3]; FaSSIF, 24 h) was 6.2 and the vapor sorption values [4] was 0.235%.
